Values after ≈ are worked out from the molar mass of the structure shown.
What was measured:
[1] = test system: OV; assay: XTT cytotoxicity assay (OV); assay type: cell-based; settings: (OV) cells
Description: (§1) The XTT assay is a non-radioactive alternative for the [^51Cr] release cytotoxicity assay. XTT is a tetrazolium salt that is reduced to a formazan dye only by metabolically active, viable cells. The reduction of XTT is measured spectrophotometrically as OD490-OD650. After 72 hours of incubation, cells are incubated for 4 hours with the XTT reagent as per manufacturer's instructions (Cell Proliferation Kit 11 (XTT) Roche). Plates are read at OD490 and OD650 on a Molecular Devices SpectraMax Plus Spectrophotometer. Three wells containing the XTT reagent without cells serve as the plate blank. XTT data are reported as OD490-OD650. Averages and standard error of the mean are computed using SOFTmax Pro software (Molecular Dynamics). The IC50 for the compounds is defined as the concentration of drug leading to a 50% reduction in OD490-OD650 compared to controls. The OD490-OD650 are computed by the SOFTmax PRO software (Molecular Devices) for each compound concentration. IC50 is calculated by linear regression, plotting the FAS activity as percent of control versus drug concentrations. Linear regression, best-fit line, r^2, and 95% confidence intervals are determined using Prism Version 3.0 (Graph Pad Software).

[2] = test system: MCF-7 human breast cancer cells; assay: XTT cytotoxicity assay (M / MCF7); assay type: cell-based; settings: MCF-7 cells, 72 hours
Description: as §1, with “as OD490-OD650. To measure the cytotoxicity of specific compounds against cancer cells, 9×10^3 MCF-7 human breast cancer cells, obtained from the American Type Culture Collection are plated per well in 96 well plates in DMEM medium with 10% fetal bovine serum, insulin, penicillin, and streptomycin. Following overnight culture at 37° C. and 5% CO2, the compounds to be tested, dissolved in DMSO, are added to the wells in 1 μl volume at the following concentrations: 80, 40, 20, 10, 5, 2.5, 1.25, and 0.625 μg/ml in triplicate. Additional concentrations are tested if required. 1 μl of DMSO is added to triplicate wells are the vehicle control. C75 is run at 40, 20, […], and 5 μg/ml in triplicate as positive controls. After 72” for “as OD490-OD650. After 72”

[3] = target: T1, FAS (Homo sapiens, UniProt P49327); assay: FAS (IC50) marked (SB); assay type: biochemical; settings: value marked (SB), not defined
T1 construct: Human FAS was purified from cultured ZR-75-1 human breast cancer cells; endogenous in cells
T1 sequence (P49327 whole entry): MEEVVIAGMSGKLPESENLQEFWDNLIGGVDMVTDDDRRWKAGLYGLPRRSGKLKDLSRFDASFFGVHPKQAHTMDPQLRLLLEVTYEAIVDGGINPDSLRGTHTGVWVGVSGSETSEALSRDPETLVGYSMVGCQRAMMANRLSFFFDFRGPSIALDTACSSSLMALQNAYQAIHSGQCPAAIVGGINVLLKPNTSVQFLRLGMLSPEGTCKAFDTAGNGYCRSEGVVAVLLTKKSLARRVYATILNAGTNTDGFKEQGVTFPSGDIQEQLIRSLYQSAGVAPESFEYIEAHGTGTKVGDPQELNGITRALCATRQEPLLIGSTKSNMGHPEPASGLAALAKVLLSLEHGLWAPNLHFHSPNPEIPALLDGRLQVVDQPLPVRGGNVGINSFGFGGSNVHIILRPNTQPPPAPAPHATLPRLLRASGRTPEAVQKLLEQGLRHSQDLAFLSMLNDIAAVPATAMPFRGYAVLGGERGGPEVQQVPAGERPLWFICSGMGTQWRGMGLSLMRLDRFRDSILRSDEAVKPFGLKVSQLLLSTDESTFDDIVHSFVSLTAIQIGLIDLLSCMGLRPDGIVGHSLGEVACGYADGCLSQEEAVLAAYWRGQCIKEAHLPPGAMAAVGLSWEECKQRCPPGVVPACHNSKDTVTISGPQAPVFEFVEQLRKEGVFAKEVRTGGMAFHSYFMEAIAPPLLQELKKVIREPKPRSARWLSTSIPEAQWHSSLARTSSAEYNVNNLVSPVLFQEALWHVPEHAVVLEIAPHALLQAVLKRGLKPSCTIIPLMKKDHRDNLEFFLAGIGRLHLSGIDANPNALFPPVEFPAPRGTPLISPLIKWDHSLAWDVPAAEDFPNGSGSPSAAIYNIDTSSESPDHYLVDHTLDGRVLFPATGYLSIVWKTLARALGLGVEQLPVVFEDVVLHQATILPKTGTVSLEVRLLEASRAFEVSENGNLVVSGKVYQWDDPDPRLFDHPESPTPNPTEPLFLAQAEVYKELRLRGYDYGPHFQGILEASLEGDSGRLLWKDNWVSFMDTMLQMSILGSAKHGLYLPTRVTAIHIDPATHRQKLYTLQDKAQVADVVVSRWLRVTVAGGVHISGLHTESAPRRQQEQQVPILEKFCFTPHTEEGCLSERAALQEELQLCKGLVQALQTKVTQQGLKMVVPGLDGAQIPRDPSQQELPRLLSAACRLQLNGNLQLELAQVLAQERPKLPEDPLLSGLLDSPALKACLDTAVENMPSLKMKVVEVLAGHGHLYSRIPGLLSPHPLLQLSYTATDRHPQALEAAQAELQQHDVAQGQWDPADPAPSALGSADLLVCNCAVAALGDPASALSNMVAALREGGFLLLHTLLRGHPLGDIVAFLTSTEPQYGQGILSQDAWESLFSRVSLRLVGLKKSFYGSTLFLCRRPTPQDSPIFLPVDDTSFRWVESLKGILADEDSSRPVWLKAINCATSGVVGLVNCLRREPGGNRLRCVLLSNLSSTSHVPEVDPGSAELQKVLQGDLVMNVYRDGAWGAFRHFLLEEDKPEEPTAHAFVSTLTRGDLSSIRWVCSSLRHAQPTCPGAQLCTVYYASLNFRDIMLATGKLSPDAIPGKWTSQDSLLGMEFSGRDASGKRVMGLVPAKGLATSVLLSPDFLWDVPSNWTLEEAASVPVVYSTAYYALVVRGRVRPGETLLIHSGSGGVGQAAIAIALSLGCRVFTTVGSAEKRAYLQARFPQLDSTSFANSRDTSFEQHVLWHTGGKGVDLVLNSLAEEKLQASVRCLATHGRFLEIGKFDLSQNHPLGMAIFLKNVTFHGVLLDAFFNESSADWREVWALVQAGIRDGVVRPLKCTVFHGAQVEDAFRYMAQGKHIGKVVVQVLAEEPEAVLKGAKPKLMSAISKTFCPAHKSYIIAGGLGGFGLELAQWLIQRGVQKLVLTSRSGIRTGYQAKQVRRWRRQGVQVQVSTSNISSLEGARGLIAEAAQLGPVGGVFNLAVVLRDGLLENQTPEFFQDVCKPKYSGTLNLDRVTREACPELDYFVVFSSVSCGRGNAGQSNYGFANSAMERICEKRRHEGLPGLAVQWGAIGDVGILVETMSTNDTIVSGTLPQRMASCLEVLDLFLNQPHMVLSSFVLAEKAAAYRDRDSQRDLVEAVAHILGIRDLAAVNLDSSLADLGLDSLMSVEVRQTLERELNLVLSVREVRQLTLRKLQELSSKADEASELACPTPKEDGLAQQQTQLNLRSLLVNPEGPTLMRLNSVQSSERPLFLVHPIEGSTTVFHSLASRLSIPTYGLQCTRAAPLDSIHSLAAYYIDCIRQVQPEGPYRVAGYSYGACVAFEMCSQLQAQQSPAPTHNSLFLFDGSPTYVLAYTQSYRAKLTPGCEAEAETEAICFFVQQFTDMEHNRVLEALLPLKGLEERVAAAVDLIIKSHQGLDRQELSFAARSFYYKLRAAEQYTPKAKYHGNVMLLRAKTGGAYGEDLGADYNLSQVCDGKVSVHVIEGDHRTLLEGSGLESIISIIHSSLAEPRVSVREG

[4] = test system: fatty acid synthesis pathway activity in MCF-7 human breast cancer cells; assay: [14C]acetate incorporation into total lipids; assay type: cell-based; settings: Homo sapiens, MCF7; MCF-7 cells, [14C]acetate into lipids
Description: This assay measures the incorporation of [^14C]acetate into total lipids and is a measure of fatty acid synthesis pathway activity in vitro. It is utilized to measure inhibition of fatty acid synthesis in vitro.
MCF-7 human breast cancer cells cultured as above, are plated at 5×10^4 cells per well in 24-well plates. Following overnight incubation, the compounds to be tested, solubilized in DMSO, are added at 5, 10, and 20 μg/ml in triplicate, with lower concentrations tested if necessary. DMSO is added to triplicate wells for a vehicle control. C75 is run at 5 and 10 μg/ml in triplicate as positive controls. After 4 hours of incubation, 0.25 μCi of [^14C]acetate (10 μl volume) is added to each well.
After 2 hours of additional incubation, medium is aspirated from the wells and 800 μl of chloroform:methanol (2:1) and 700 μl of 4 mM MgCl2 is added to each well. Contents of each well are transferred to 1.5 Eppendorf tubes, and spun at full-speed for 2 minutes in a high-speed Eppendorf Microcentrifuge 5415D. After removal of the aqueous (upper) layer, an additional 700 μl of chloroform:methanol (2:1) and 500 μl of 4 mM MgCl2 are added to each tube and then centrifuged for 1 minutes as above. The aqueous layer is removed with a Pasteur pipette and discarded. An additional 400 μl of chloroform:methanol (2:1) and 200 μl of 4 mM MgCl2 are added to each tube, then centrifuged and aqueous layer is discarded. The lower (organic) phase is transferred into a scintillation vial and dried at 40° C. under N2 gas. Once dried, 3 ml of scintillant (APB #NBC5104) is added and vials are counted for ^14C. The Beckman Scintillation counter calculates the average cpm values for triplicates.
The IC50 for the compounds is defined as the concentration of drug leading to a 50% reduction in [^14C]acetate incorporation into lipids compared to controls. This is determined by plotting the average cpm for each inhibitor concentration tested, performing linear regression and computing the best-fit line, r^2 values, and 95% confidence intervals. The average cpm values are computed by the Beckman scintillation counter (Model LS6500) for each compound concentration. Computation of linear regression, best-fit line, r^2, and 95% confidence intervals are calculated using Prism Version 3.0 (Graph Pad Software).

[5] = test system: MCF-7 human breast cancer cells; assay: Crystal violet cell growth assay; assay type: cell-based; settings: MCF7, MCF-7 cells, 72 hours, read-out: Cr. Violet (IC50)
Description: The crystal violet assay measures cell growth but not cytotoxicity. This assay employs crystal violet staining of fixed cells in 96-well plates with subsequent solubilization and measurement of OD490 on a spectrophotometer. The OD490 corresponds to cell growth per unit time measured. Cells are treated with the compounds of interest or vehicle controls and IC50 for each compound is computed.
To measure the cytotoxicity of specific compounds against cancer cells, 5×10^4 MCF-7 human breast cancer cells, obtained from the American Type Culture Collection are plated per well in 24 well plates in DMEM medium with 10% fetal bovine serum, penicillin, and streptomycin. Following overnight culture at 37° C. and 5% CO2, the compounds to be tested, dissolved in DMSO, are added to the wells in 1 μl volume at the following concentrations: 50, 40, 30, 20, and 10 μg/ml in triplicate. Additional concentrations are tested if required. 1 μl of DMSO is added to triplicate wells are the vehicle control. C75 is run at 10, and 5 μg/ml in triplicate as positive controls.
After 72 hours of incubation, cells are stained with 0.5 ml of Crystal Violet stain (0.5% in 25% methanol) in each well. After 10 minutes, wells are rinsed, air dried, and then solubilized with 0.5 ml 10% sodium dodecylsulfate with shaking for 2 hours. Following transfer of 100 μl from each well to a 96-well plate, plates are read at OD490 on a Molecular Devices SpectraMax Plus Spectrophotometer Average OD490 values are computed using SOFTmax Pro Software (Molecular Devices) and IC50 values are determined by linear regression analysis using Prism version 3.02 (Graph Pad Software, San Diego).

[6] = Weight loss screen; assay type: in vivo, Balb/C mice; settings: 60 mg/kg intraperitoneally, day 2
Description: Balb/C mice (Jackson Labs) are utilized for the initial weight loss screening. Animals are housed in temperature and 12 hour day/night cycle rooms and fed mouse chow and water ad lib. Three mice are utilized for each compound tested with vehicle controls in triplicate per experiment. For the experiments, mice are housed separately for each compound tested three mice to a cage. Compounds are diluted in DMSO at 10 mg/ml and mice are injected intraperitoneally with 60 mg/kg in approximately 100 μl of DMSO or with vehicle alone. Mice are observed and weighed daily; average weights and standard errors are computed with Excel (Microsoft). The experiment continues until treated animals reach their pretreatment weights. Select compounds are tested in animals housed in metabolic cages. Dosing of animals are identical to the screening experiments with three animals to a single metabolic cage. Animal weights, water and food consumption, and urine and feces production are measured daily.

[7] = target: rat liver acyl-CoA synthetase; settings: rat liver enzyme; read-out: 50% inhibition of rat liver acyl-CoA synthetase; cited from earlier work
[8] = test system: Raji cells; settings: cited from earlier work
[9] = target: HIV protease (Human immunodeficiency virus type 1 group M subtype B, UniProt P04585); settings: cited from earlier work
[10] = test system: Mycobacterium tuberculosis; settings: in vitro; cited from earlier work

Compound	IC50 [1] [µg/mL]	IC50 [2] [µg/mL]	IC50 [3] [µM]	other results
CCCCCCCCNC(=O)c1cc(OCC(=O)OC)cs1	55 (≈ 168 µM)	41.1 ± 2.6 (≈ 126 µM)	–	FAS (IC50) (SB) [3]: Neg (SB); IC50 [4]: 15.8 µg/mL (≈ 48.3 µM); IC50 [5]: 43.4 µg/mL (≈ 133 µM)
O=C(NNC(=O)c1cc(O)cs1)c1ccco1	> 80	> 80	135	Weight Loss [6]: 60 mg/kg: 1.5% (day 2)
O=C(NNc1ccc(Cl)cc1)c1cc(O)cs1	30 (≈ 112 µM)	56.9 (≈ 212 µM)	510	–
CCCC=CCC=CC=CC=NN=NO [Triacsin C, 1-hydroxy-3-(E, E, E-2′,4′,7′-undecatrienylidine) triazene]	–	–	–	IC50 [7]: 8.7 µM; concentration causing growth inhibition in Raji cells [8]: 1.0 µM
C/C=C/C/C=C/CCC(=O)[C@H]1O[C@H]1C(N)=O [cerulenin, (2S,3R)-2,3-epoxy-4-oxo-7,10 dodecadienoyl amide]	–	–	–	concentration for inhibition of viral HIV protease [9]: 5 mg/mL; activity against Mycobacterium tuberculosis [10]: no activity
